# In patent US9880171B2, “iASPP phosphorylation and metastatic potential” (LUDWIG INSTITUTE FOR CANCER RESEARCH LTD., priority 2012, dated 2018):
# Legend:
# Format in all cases: cell-based, human
# [1] = tested on: slow-migrating iASPP in melanoma cell lines; assay: induction of slow-migrating iASPP in melanoma cell lines (WB); settings: panel of melanoma cell lines, nocodazole overnight
# Procedure: FIG. 3. Mitotic arrests induces slow-migrating nuclear iASPP. A. Mitosis-arresting (i.e., apoptosis-inducing) chemotherapeutic drugs induce slow-migrating iASPP. H1299 cells were treated overnight with the indicated concentrations of mitosis-arrest drugs nocodazole, colchicine and taxol, DNA damaging drugs, or oxidative stress inducers (1-3 h). Total lysate was prepared in UREA buffer, and iASPP expression patterns were determined using antibody LX49.3. B. Slow-migrating iASPP exclusively exists in mitotic cells after drug induction. Mitotic-arrest drugs were applied to H1299 cells to induce iASPP mobility shift. Floating and adherent cells were collected, and iASPP expression pattern was determined by western blotting (WB). C. Slow-migrating iASPP exists in natural mitotic cells and localized in nucleus (as determining by staining with the nuclear specific marker Topro). Left panel, cells in mitosis (floating) and interphase (adherent) were collected by mitotic shake-off, and iASPP expression pattern was determined by WB. Right panel, H1299 cells after Taxol treatment, or mitotic shake-off were immunofluorescence stained using antibody LX49.3. […] Melanoma cells were treated with nocodazole overnight and iASPP expression patterns from total cell lysate was determined by WB. […]
# [2] = tested on: slow-migrating iASPP in H1299 cells; assay: induction of slow-migrating iASPP by chemotherapeutic agents in H1299 cells (WB); settings: H1299, overnight treatment (oxidative stress inducers 1-3 h; EDTA 4 mM 1 hour), antibody LX49.3
# Procedure: FIG. 3. […] H1299 cells were treated overnight with the indicated concentrations of mitosis-arrest drugs nocodazole, colchicine and taxol, DNA damaging drugs, or oxidative stress inducers (1-3 h). Total lysate was prepared in UREA buffer, and iASPP expression patterns were determined using antibody LX49.3. […] Mitotic-arrest drugs were applied to H1299 cells to induce iASPP mobility shift. Floating and adherent cells were collected, and iASPP expression pattern was determined by western blotting (WB). C. […] Left panel, cells in mitosis (floating) and interphase (adherent) were collected by mitotic shake-off, and iASPP expression pattern was determined by WB. Right panel, H1299 cells after Taxol treatment, or mitotic shake-off were immunofluorescence stained using antibody LX49.3. In mitotic shake-off experiment, mitotic shake-off cells were cytospun to slides; the remaining adherent cells after shaking were scraped off and used as interphase control. […] Melanoma cells were treated with nocodazole overnight and iASPP expression patterns from total cell lysate was determined by WB.
# FIG. 4. A. Floating and adherent H1299 cells separately collected by mitotic shake-off (FIG. 3C) were stained with propidium iodide (PI), followed by FACS analysis. […] B. H1299 cells were subjected to treatment of 10 μM nocodazole for 24 hours (Nocodazole), on ice for 30 minutes (Cold shock), or 4 mM EDTA for 1 hour (EDTA). Left panel: iASPP expression pattern was analysed by immunoblotting. Right panel: phase contrast images were taken before collection of the cells for WB analysis. Bar=20 μm.
# (§1) For WB, cells were lysed in buffer containing 8 M urea, 1 M thiourea, 0.5% CHAPS, 50 mM DTT, and 24 mM spermine. A total of 40 μg of protein extract was loaded per lane into SDS-polyacrylamide gels. Gels were transferred onto nitrocellulose membrane (Protran) and the resulting blots incubated first with primary antibody overnight at 4° C. and then with the appropriate secondary horseradish peroxidize-conjugated antibody (Dako). The results were visualized by enhanced chemiluminescent detection (Amersham Biosciences) using X-ray film (Fujifilm). For cell lysate immunoprecipitation, cells were dissolved in NP40 buffer (50 mM Tris-HCl pH 8.0, 150 mM NaCl, 1% NP-40) with protease inhibitor cocktail mix (Roche Diagnostics). Cells were further thoroughly broken by ultrasonication, followed by spinning for 1 hour. Achieved suspension was adjusted to 1-2 mg/ml using NP40 buffer and incubated with 20 μl nickel beads, glutathione beads, or protein A beads (with 2 μg required antibody) for 2 h at room temperature. The beads were washed for four times with NP40 buffer, boiled for 5 min in Laemmli sample buffer, and applied for Western blotting. For pure protein immunoprecipitation, 5-10 μg purified proteins were mixed in NP40 buffer with 1 mg/ml BSA for 2 h at room temperature.
# As mitotic cells often detach from the tissue culture dish, floating cells were separated from adherent cells after the treatment of Nocodozole, Taxol and Colchicine.
# [3] = tested on: iASPP modification and p53-iASPP binding in WM278 cells; assay: iASPP modification and p53 co-immunoprecipitation in WM278 cells; settings: 0.4 μM JNJ or 10 μM nocodazole overnight
# Procedure: as §1
smiles,measurement,setting,value
COC(=O)Nc1nc2ccc(C(=O)c3cccs3)cc2[nH]1 [Nocodazole],induction of slow-migrating iASPP isoform,[1],induced the conversion of faster migrating iASPP into the slower migrating iASPP isoform
same,induction of slow-migrating iASPP isoform,[2],induced
same,amount of modified iASPP,[3],induced iASPP modification
